From article PMC6272448, “Synthesis, ^18F-Radiolabelling and Biological Characterization of Novel Fluoroalkylated Triazine Derivatives for in Vivo Imaging of Phosphodiesterase 2A in Brain via Positron Emission Tomography” (Molecules, 2015) come the findings set out here.

Broadly, the logD is the decadic logarithm of the distribution of all forms, ionised or not, between an organic phase and buffer at a given pH. Low readings indicate a more hydrophilic compound, high ones a more lipophilic compound.

Data set [1] in a line: lipophilicity (logD7.4), shake-flask method. As to conditions: n-octanol/PBS (1:1, v/v), n-octanol / PBS pH 7.4, ambient temperature, fourfold determination. In kind it is physicochemical. Here is the method: (§1) To estimate the lipophilicity of [^18F]TA3 and [^18F]TA4, the distribution coefficients were determined by partitioning between n-octanol and phosphate buffered saline (PBS, pH 7.4) at ambient temperature using the conventional shake-flask method. […] In vitro stability of each radioligand was investigated in phosphate buffered saline (PBS, pH 7.4), n-octanol and pig plasma after 60 min incubation at 37 °C.
The lipophilicity of [^18F]TA3 or [^18F]TA4 was determined by partitioning between n-octanol and phosphate buffered saline (PBS, pH 7.4) at ambient temperature using the conventional shake-flask method. An aliquot of 10 µL of the formulated solutions of each [^18F]TA3 or [^18F]TA4 with approximately 1 MBq of the radioligand was added to a tube containing 6 mL of the n-octanol/PBS-mixture (1:1, v/v, fourfold determination). The tubes were shaken for 20 min using a mechanical shaker (HS250 basic, IKA Labortechnik GmbH & Co. KG, Staufen, Germany) followed by centrifugation (5000 rpm for 5 min) and separation of the phases. Aliquots of each 1 mL were taken from the organic and the aqueous phase and activity was measured using an automated gamma counter (1480 WIZARD, Fa. Perkin Elmer, Waltham, MA, USA). The distribution coefficient (D) was calculated as [activity (cpm/mL) in n-octanol]/[activity (cpm/mL) in PBS, pH 7.4] specified as the decade logarithm (logD7.4).

A short description of data set [2]: in vitro stability in PBS, n-octanol and pig plasma. In kind it is in vitro ADME. Conditions: PBS pH 7.4, n-octanol and pig plasma, 60 min at 37 °C; radio-TLC and radio-HPLC. How it is done:
as §1
In vitro stabilities of [^18F]TA3 or [^18F]TA4 were investigated by incubation of the radioligands in phosphate buffered saline (PBS, pH 7.4), n-octanol and pig plasma at 37 °C for 60 min (~5 MBq of the radioligand added to 500 µL of each medium). Samples were taken at 15, 30 and 60 min after incubation and analyzed by radio-TLC and radio-HPLC (system B).

Data set [3] can be described thus: in vivo metabolism in mice, conventional extraction and RP-HPLC. As to conditions: CD-1 mice, 30 min p.i., 150 MBq, extraction + RP-HPLC. How it is done:
In vivo metabolism of [^18F]TA3 and [^18F]TA4 was investigated in plasma and brain samples obtained from CD-1 mice at 30 min post injection of 150 MBq of each radioligand. Analysis of the samples was performed after protein precipitation and twofold extraction using an organic solvent. […] In brain samples, 50% of total activity were represented by intact [^18F]TA3 (Figure 7; recovery: 65%).
(§2) The radioligands [^18F]TA3 or [^18F]TA4 (~60 MBq in 150 µL isotonic saline) were injected via the tail vein in female CD-1 mice (10–12 weeks old). Brain and blood samples were obtained at 30 min p.i., plasma separated by centrifugation (14,000× g, 1 min), and brain homogenized in ~1 mL isotonic saline on ice (10 strokes of a PTFE plunge at 1000 rpm in a borosilicate glass cylinder; Potter S Homogenizer, B. Braun Melsungen AG, Melsungen, Germany).
Twofold extractions of plasma (2 × 50 µL, 30 min p.i.) and brain samples (2 × 250 µL, 30 min p.i.) were performed using a mixture of ice-cold acetone/water (8:2, v/v; plasma or brain sample/organic solvent, 1:4, v/v). The samples were vortexed for 1 min, incubated on ice for 10 min (first extraction) or 5 min (second extraction) and centrifuged at 10,000 rpm for 5 min. Supernatants were collected and the precipitates were re-dissolved in ice-cold acetone/water for the second extraction. Aliquots from supernatants of each extraction step were taken. Activity thereof and of the precipitates was quantified using an automated gamma counter (1480 WIZARD, Fa. Perkin Elmer). The supernatants from both extractions were combined, concentrated under nitrogen stream at 70 °C and analyzed by radio-HPLC (system B).

Data set [4] can be described thus: in vivo metabolism in mice, micellar HPLC (MLC). As to conditions: CD-1 mice, 30 min p.i.; for intact radioligand in brain: brain homogenate; for intact radioligand in plasma: direct injection.
Excerpt: Therefore we used micellar HPLC (MLC), because this method allows the direct injection of plasma samples without deproteination. MLC was recently investigated by Nakao et al. regarding their suitability for direct plasma metabolite analysis of PET radioligands. As eluent a mixture of an aqueous solution of sodium dodecyl sulphate (SDS), phosphate buffer and 1-propanol was used. According to the published procedure, a gradient mode was applied starting under micellar conditions to completely elute the protein fraction and release the protein bound ^18F-compounds by the SDS micelles. Subsequent increase of the amount of 1-propanol as organic modifier leads to high submicellar conditions resulting in the elution of the intact radioligand and its radio-metabolites.
as §2
For preparation of the MLC injection samples, mouse plasma (20–50 µL, 30 min p.i.) was dissolved in 100–300 µL of 200 mM aqueous SDS and injected directly into the MLC system (500 µL sample loop; column: Reprosil-Pur C18-AQ, 250 × 4.6 mm, particle size: 10 µm; gradient: 0–15 min: 3% 1-PrOH, 15–40 min: 3% → 30% 1-PrOH; 40–49 min: 30% 1-PrOH, 49–50 min: 30% → 3% 1-PrOH; 50–60 min: 3% 1-PrOH/100 mM SDS, 10 mM Na2HPO4; flow: 1 mL/min; ambient temperature). […] Homogenized brain material (100–200 µL, 30 min p.i.) was dissolved in 500 µL of 200 mM aqueous SDS, stirred at 75 °C for 5 min and after cooling to ambient temperature injected into the MLC system.

As to `COc1ccc2nnc3c(C)nc(-c4cc(OCCC[18F])ccc4F)n3c2n1` [[^18F]TA3], the log distribution coefficient (logD) in data set [1] worked out at 3.37 ± 0.14. Also, in data set [2], the in vitro stability result is “stable in all media tested in vitro”. Also, in data set [3], the “intact radioligand in brain” value was 50 % of total activity and the “non-metabolized (intact) radioligand in plasma” value is reported as 8 % of total activity. In addition, in data set [4], the “intact radioligand in brain” value was 29 % of total activity and the “intact radioligand in plasma” value is on record as 5 % of total activity.

In data set [1], `COc1ccc2nnc3c(C)nc(-c4cc(OCCCC[18F])ccc4F)n3c2n1` [[^18F]TA4] displayed a pH-dependent lipophilicity (logD) of 2.99 ± 0.15. For the same molecule, the in vitro stability entry in data set [2] is “stable in all media tested in vitro”. Also, in data set [3], the “intact radioligand in brain” value is “No intact [^18F]TA4 was detectable” and the “non-metabolized (intact) radioligand in plasma” value was 6 % of total activity. Also, in data set [4], the “intact radioligand in brain” value is 4 % of total activity and the “intact radioligand in plasma” value is on record as 5 % of total activity.
